Assay results: patent US4177271A, “Hydroxy- and oxo-substituted α-benzylidenylcycloalkanes” (Unicler, priority 1977, dated 1979)

Columns and labels:
[1] = Acute toxicity (LD50), mice, intraperitoneal route, Log-Probits method of Miller and Tainter; type: in vivo; conditions: mouse, in vivo, ip
Procedure: (§1) The LD50 of the products was determined in mice by the intraperitoneal route according to the "Log-Probits" method of Miller and Tainter (Proc. Soc. Exptl. Biol. Med. 1944; 57, 261-264).

central nervous system = assay: Activity on the central nervous system (overall conclusion); parameters: species or system mice; conditions: mouse, in vivo
Text: (§2) This was investigated by observing the behaviour of the animal by studying the modification in hexobarbital-induced narcosis and antagonism vis-a-vis reserpine.

[2] = system: hexobarbital-induced narcosis; assay: Modification (potentialisation) of hexobarbital-induced narcosis in mice; type: in vivo; conditions: Mus musculus, sodium hexobarbital 70 mg/kg IP half an hour later, read-out: Narcosis potentialisation, T (percentage increase in sleep time induced by hexobarbital); for change in vivo at 100 mg/kg: 100 mg/kg IP; for change in vivo at 200 mg/kg: 200 mg/kg IP; for change in vivo at 10 mg/kg: 10 mg/kg IP
Procedure: as §2
Mice, each weighing about 20 g, received intraperitoneally the product being investigated. Half an hour later sodium hexobarbital was injected by the same route at a dosage of 70 mg/kg.
The animals were placed on a hot plate maintained at a constant temperature of 27° C. Sleep is considered to have occurred as soon as a mouse, placed in the dorsal decubitus position, is incapable of turning over onto its paws.
The narcosis potentialisation is evaluated from the percentage increase in sleep time induced by hexobarbital (T).

[3] = system: blepharospasm produced by reserpine; assay: Antagonism vis-a-vis reserpine (blepharospasm) in mice; type: in vivo, Swiss male mice; parameters: key: The inhibition of blepharospasm is recorded from 0 to +++; The inhibition of blepharospasm is recorded from 0 to +++; conditions: reserpine 5 mg/kg IP
Procedure: as §2
(Chen G., and Bohner B., (1961) J. pharmacol Exptl. Therap. 131, 179).
Reserpine when administered intraperitoneally to mice in a dosage of 5 mg/kg causes the eyelids to close more or less completely in the majority of animals. The administration of certain products will inhibit the blepharospasm produced by reserpine.
Swiss male mice are distributed into groups of 10 mice, and each experiment includes at least 3 groups:
a control group that receives only the solvent and reserpine
a group treated with a reference product (we chose Imipramine)
a treated group that receives the product being tested.
The products under investigation are administered intraperitoneally at 30 minutes or 2 hours before intraperitoneal injection of reserpine in a dosage of 5 mg/kg, so as to study their activity as a function of time.
The degree of ptosis for each eye and each animal is observed every 30 minutes for 4 to 5 hours, using RUBIN's score method. The activity of the product is determined by comparison with the result obtained with the treated control group. The inhibition of blepharospasm is recorded from 0 to +++.

mice = assay: Acute toxicity (LD50), mice, intraperitoneal route, Log-Probits method of Miller and Tainter; type: in vivo
Procedure: as §1

Compound	LD50 [1]	Blepharospasm (inhibition) ([3]; 200 mg/kg IP)	change in vivo at 200 mg/kg [2]	also measured
CC1CCCC(=Cc2ccc3c(c2)OCO3)C1O (centres unmarked) [Code No. 1040, 2-(3,4-methylenedioxybenzylidene)-6-methylcyclohexanol or 2-piperonylidene-6-methylcyclohexanol]	1000 mg/kg	–	–	usefulness as an anti-depressant (central nervous system): particularly useful as an anti-depressant; change in vivo at 100 mg/kg [2]: 174%
CC1CCCC(=Cc2ccc3c(c2)OCO3)C1=O (centres unmarked) [compound 993]	2000 mg/kg	0	385%	–
CC1CCC(=O)C(=Cc2ccc3c(c2)OCO3)C1 (centres unmarked) [compound 994]	2000 mg/kg	0	103%	–
CC1CC(=Cc2ccc3c(c2)OCO3)C(=O)C(=Cc2ccc3c(c2)OCO3)C1 (centres unmarked) [compound 1059]	–	0	0%	DL0 (IP) (mice): ≥ 2000 mg/kg
COc1ccc(C=C2CCCC(C)C2=O)cc1OC (centres unmarked) [compound 1266]	700 mg/kg	–	–	Blepharospasm (inhibition) ([3]; 70 mg/kg IP): 0; change in vivo at 70 mg/kg ([2]; 70 mg/kg IP): 0%
COc1ccc(C=C2CCCC(C)C2O)cc1OC (centres unmarked) [compound 1267]	900 mg/kg	–	–	–
COc1cc(C=C2CCCC(C)C2=O)cc(OC)c1OC (centres unmarked) [compound 1268]	1000 mg/kg	–	–	change in vivo at 100 mg/kg [2]: 60%
COc1cc(C=C2CCCC(C)C2O)cc(OC)c1OC (centres unmarked) [compound 1269]	1100 mg/kg	–	–	Blepharospasm (inhibition) ([3]; 110 mg/kg IP): 0; change in vivo at 110 mg/kg ([2]; 110 mg/kg IP): 66%
COc1ccc(C=C2CCCC(C)C2=O)c(OC)c1OC (centres unmarked) [compound 1270]	1000 mg/kg	–	–	–
COc1ccc(C=C2CCCC(C)C2O)c(OC)c1OC (centres unmarked) [compound 1271]	500 mg/kg	–	–	Blepharospasm (inhibition) ([3]; 50 mg/kg IP): 0; change in vivo at 50 mg/kg ([2]; 50 mg/kg IP): 0%
CC1CCCC(=Cc2cc3c(cc2Cl)OCO3)C1=O (centres unmarked) [compound 1274]	–	–	99%	DL0 (IP) (mice): ≥ 2000 mg/kg
CC1CCCC(=Cc2cc3c(cc2Cl)OCO3)C1O (centres unmarked) [compound 1275]	2000 mg/kg	0	56%	–
O=C1C(=Cc2ccc3c(c2)OCO3)Cc2ccccc21 [compound 1292]	–	0	62%	DL0 (IP) (mice): ≥ 2000 mg/kg
O=C1C(=Cc2ccc3c(c2)OCO3)CCc2ccccc21 [compound 1293]	–	0	30%	DL0 (IP) (mice): ≥ 2000 mg/kg
OC1C(=Cc2ccc3c(c2)OCO3)Cc2ccccc21 (centres unmarked) [compound 1322]	1500 mg/kg	–	–	Blepharospasm (inhibition) ([3]; 150 mg/kg IP): 0; change in vivo at 150 mg/kg ([2]; 150 mg/kg IP): 116%
CN1CC(=Cc2ccc3c(c2)OCO3)C(O)C(=Cc2ccc3c(c2)OCO3)C1 (centres unmarked) [compound 1324]	–	0	83%	DL0 (IP) (mice): ≥ 2000 mg/kg
OC1C(=Cc2ccc3c(c2)OCO3)CCCC1CN1CCOCC1 (centres unmarked) [compound 1347]	1000 mg/kg	–	–	change in vivo at 100 mg/kg [2]: 60%
CN(C)CC1(C)CCCC(=Cc2ccc3c(c2)OCO3)C1O (centres unmarked) [compound 1349]	100 mg/kg	–	–	change in vivo at 10 mg/kg [2]: 10%
CN1CCN(CC2(C)CCCC(=Cc3ccc4c(c3)OCO4)C2=O)CC1 (centres unmarked) [compound 1352]	150 mg/kg	–	–	Blepharospasm (inhibition) ([3]; 15 mg/kg IP): 0; change in vivo at 15 mg/kg ([2]; 15 mg/kg IP): 0%
O=C1CCCC1=Cc1ccc2c(c1)OCO2 [compound 1386]	1300 mg/kg	–	–	Blepharospasm (inhibition) ([3]; 130 mg/kg IP): 0; change in vivo at 130 mg/kg ([2]; 130 mg/kg IP): 190%
OC1CCCC1=Cc1ccc2c(c1)OCO2 (centres unmarked) [compound 1387]	100 mg/kg	–	–	Blepharospasm (inhibition) ([3]; 10 mg/kg IP): 0; change in vivo at 10 mg/kg [2]: 40%
OC1C(=Cc2ccc3c(c2)OCO3)CCc2ccccc21 (centres unmarked) [compound 1388]	–	0	10%	DL0 (IP) (mice): > 200 mg/kg
CC1CCC(O)C(=Cc2ccc3c(c2)OCO3)C1 (centres unmarked) [compound 1446]	1500 mg/kg	–	–	–
